Measured values from patent publication US6573282B1 (priority 1995, dated 2003).
“And” between values parts separate entries of the source, which are not always exact repeats. Equal values may be shown once. “Also recorded” adds a separate entry of the source. Where a name gives a salt, the structure may show the parent alone. Read-outs that look alike come from different tables or passages of the source.

What was measured:
[1] = tested on: formalin-induced nociception; assay: Formalin-induced flinching (early and late/tonic phase), intrapaw injection; format: in vivo, rat; details: for Formalin-Induced Flinching (Late Phase) % Maximal Efficacy / Formalin-Induced Flinching (Late Phase) ED50: intrapaw; for % Antagonism of Late Phase Flinching: 10 minutes prior to formalin, mean ± SEM; for A50, antinociception in the second phase of flinching: i.paw injection
[2] = target: human δ receptor (Homo sapiens, UniProt P41143); assay: Opiate receptor binding, δ
Sequence of human δ receptor (P41143 whole entry): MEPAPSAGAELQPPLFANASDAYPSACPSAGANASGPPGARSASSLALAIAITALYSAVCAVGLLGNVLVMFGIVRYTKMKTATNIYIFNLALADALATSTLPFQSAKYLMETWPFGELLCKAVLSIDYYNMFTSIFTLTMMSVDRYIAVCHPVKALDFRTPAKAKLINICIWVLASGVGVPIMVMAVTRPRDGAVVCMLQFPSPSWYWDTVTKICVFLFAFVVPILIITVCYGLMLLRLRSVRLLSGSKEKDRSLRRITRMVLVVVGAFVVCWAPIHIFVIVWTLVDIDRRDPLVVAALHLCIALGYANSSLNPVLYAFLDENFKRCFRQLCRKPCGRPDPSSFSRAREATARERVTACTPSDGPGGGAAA

[3] = target: T1, human μ opiate receptors (Homo sapiens, UniProt P35372); assay: biochemical; format: binding
T1 construct: expressed in transfected cells; host or cells: CHO cells
T1 sequence (P35372 whole entry): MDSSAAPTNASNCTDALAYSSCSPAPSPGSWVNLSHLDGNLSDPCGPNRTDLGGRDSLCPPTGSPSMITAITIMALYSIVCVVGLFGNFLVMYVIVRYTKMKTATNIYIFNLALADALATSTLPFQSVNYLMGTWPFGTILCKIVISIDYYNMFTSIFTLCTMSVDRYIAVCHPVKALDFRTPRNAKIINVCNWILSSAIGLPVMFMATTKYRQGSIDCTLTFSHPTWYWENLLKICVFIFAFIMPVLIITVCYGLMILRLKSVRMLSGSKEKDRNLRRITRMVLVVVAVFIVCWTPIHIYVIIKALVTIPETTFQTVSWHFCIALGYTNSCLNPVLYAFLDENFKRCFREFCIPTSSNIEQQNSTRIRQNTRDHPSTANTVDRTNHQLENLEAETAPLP

[4] = target: human κ receptor (Homo sapiens, UniProt P41145); assay: biochemical; format: binding
Sequence of human κ receptor (P41145 whole entry): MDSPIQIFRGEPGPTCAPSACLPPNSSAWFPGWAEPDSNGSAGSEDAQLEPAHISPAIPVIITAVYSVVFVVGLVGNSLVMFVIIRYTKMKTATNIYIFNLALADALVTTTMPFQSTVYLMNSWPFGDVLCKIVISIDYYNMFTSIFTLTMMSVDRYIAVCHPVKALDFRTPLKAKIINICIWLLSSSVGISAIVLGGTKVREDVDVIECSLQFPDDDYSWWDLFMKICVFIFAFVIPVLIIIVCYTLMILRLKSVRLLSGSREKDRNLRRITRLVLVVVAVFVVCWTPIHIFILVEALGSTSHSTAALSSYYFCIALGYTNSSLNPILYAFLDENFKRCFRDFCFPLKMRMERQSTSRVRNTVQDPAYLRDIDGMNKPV

[5] = tested on: carrageenan or yeast inflammatory stimulus; assay: Separate tests using carrageenan or yeast as the inflammatory stimulus; format: in vivo
[6] = tested on: acetic acid-induced writhing; details: mice, intraparenterally (Takasuna et al. 1994); cited from earlier work
[7] = tested on: yeast-injected left hind paw; assay: Randall-Selitto assay, yeast-induced inflammation, paw pressure threshold; format: in vivo, rat; details: four hours after yeast, n=10
From the text: Air pressure from an air line is admitted through a needle valve to a syringe into a pressure gauge which is connected by a T-tube. The syringe is mounted with a plunger downward, to which is connected a short bullet-shaped wooden peg. The pressure is applied through the wooden tip to the plantar surface of the rat's foot at a specified rate of mm Hg per second. The end point is said to have been reached when the rat starts struggling.
Typically, rats, such as albino rats (120-170 g) of the Charles River Sprague-Dawley strain, or other laboratory strain are used. Hyperalgesia [inflammation] is produced by the injection of 0.1 ml of a 20% suspension of Brewer's yeast into the plantar surface of the rat's hind foot. Thresholds can be determined using a modified apparatus described in Winter and Flataker [(1965) J. Pharm. Exp. Ther. 148:373]. The pain threshold is measured as the pressure in mm Hg required to induce the desired response [a sharp audible squeak and/or struggle] when pressure is applied to the foot. Air pressure from an air line [or other source, such as a vice] is admitted through a needle valve to a 20 ml glass syringe and to a pressure gauge. Pressure is applied to the foot of the rat at a selected rate. The agent compound to be tested is administered typically 2 hours after the yeast injection and threshold response is determined. […] Analgesic activity was determined in terms of the percentage of inhibition of response:
Inhibition (%)=Threshold of the treated group−Threshold of the control group/Threshold of the control group×100
A Randall-Selitto assay [see, Randall et al. (1957) Arch. Int. Pharmacodyn.
Each rat was injected with 100 μl of a 20% yeast solution into the plantar surface of the left hind paw. […] Control rats were treated with 10% DMSO alone [n=20]. The pain thresholds of the inflamed and non-inflamed paws were measured by application of a pressure stimulus to the paw and the paw pressure threshold in gram [g] was recorded.

[8] = tested on: acute pain models; details: given systemically; tail clip and hot plate tail withdrawal tests (Stahl et al., Shriver et al.); cited from earlier work
[9] = tested on: catalepsy; assay: Catalepsy: time to dismount from a 4 cm high bar after IM injection; details: for Time to Dismount from Bar (sec) Before Drug: before drug (baseline); for Time to Dismount from Bar (sec) Before Drug / Time to Dismount from Bar (sec) After Drug Treatment (15 min): individual rats and x ± SE; for catalepsy: unanesthetized rats, IM morphine 3 mg, loperamide 0.5 mg

CN(C)C(=O)C(CCN1CCC(O)(c2ccc(Cl)cc2)CC1)(c1ccccc1)c1ccccc1 [Ioperamide]
Formalin-Induced Flinching (Late Phase) % Maximal Efficacy [1]: 97%
Formalin-Induced Flinching (Late Phase) ED50 [1]: 6 μg i. paw

CCOC(=O)C1(c2ccccc2)CCN(CCC(C#N)(c2ccccc2)c2ccccc2)CC1 [Deiphenoxylate]
Formalin-Induced Flinching (Late Phase) % Maximal Efficacy [1]: 61%
Formalin-Induced Flinching (Late Phase) ED50 [1]: 158 μg i. paw
Ki ([2]; read-out: In Vitro Binding Affinities Human Opiate Receptors Ki, δ): 315 nM

4-(4-chlorophenyl)-4-hydroxy-N,N-dimethyl-α,α-diphenyl-1-piperidinebutanamide methyl p-toluenesulfonate [Example 19]
Formalin-Induced Flinching (Late Phase) % Maximal Efficacy [1]: 69%
Formalin-Induced Flinching (Late Phase) ED50 [1]: 93 μg i. paw

CCN(C)C(=O)C(CCN1CCC(O)(c2ccc(Cl)cc2)CC1)(c1ccccc1)c1ccccc1 [Compound 17A]
Formalin-Induced Flinching (Late Phase) % Maximal Efficacy [1]: 91%
Formalin-Induced Flinching (Late Phase) ED50 [1]: 4.8 μg i. paw
Ki [3]: 4 nM
Ki [4]: 1420 nM
Ki [2]: 123 nM

CN(C)C(=O)C(CCN1CCC(O)(c2ccc(Cl)cc2)CC1)(c1ccccc1)c1ccccc1 [loperamide, 4-(p-chlorophenyl)-4-hydroxy-N-N-dimethyl-α,α-diphenyl-1-piperidinebutyramide hydrochloride]
antihyperalgesic activity [5]: demonstrated antihyperalgesic activity
time prior to formalin injection at which administration was still efficacious ([1]; 100 μg i.paw): up to 6 hours
antinociception when injected into the paw contralateral to formalin ([1]; 100 μg i.paw, contralateral): failed to produce antinociception
antihyperalgesia when injected ipsilateral to formalin ([1]; 100 μg i.paw, ipsilateral): exhibited antihyperalgesia activity
late phase flinching behavior at the highest dose ([1]; 300 μg i.paw, hydrochloride): practically no flinching behavior; also recorded: Full efficacy
% Antagonism of Late Phase Flinching ([1]; dose 1 μg into the paw): 20 ± 7%
% Antagonism of Late Phase Flinching ([1]; dose 3 μg into the paw): 53 ± 10%
% Antagonism of Late Phase Flinching ([1]; dose 10 μg into the paw): 55 ± 15%
% Antagonism of Late Phase Flinching ([1]; dose 30 μg into the paw): 74 ± 10%
% Antagonism of Late Phase Flinching ([1]; dose 100 μg into the paw): 75 ± 11%
% Antagonism of Late Phase Flinching ([1]; dose 300 μg into the paw): 97 ± 2%
effects on early phase flinching ([1]; doses of 0.3, 3, 30 and 300 μg): no significant effects
A50, antinociception in the second phase of flinching [1]: 6 µg
acetic acid-induced writhing [6]: suppression
Paw Pressure Threshold ([7]; dose 10 μg/100 μl/rat in 10% DMSO): 66 ± 15 g
Paw Pressure Threshold ([7]; dose 50 μg/100 μl/rat in 10% DMSO): 124 ± 29 g
Paw Pressure Threshold ([7]; dose 250 μg/100 μl/rat in 10% DMSO): 153 ± 25 g
analgesic effects in acute pain models [8]: little or no analgesic effects
Time to Dismount from Bar (sec) Before Drug ([9]; IM loperamide (0.5 mg) group, hydrochloride): 1 sec (4×) and 1 ± 0 sec
Time to Dismount from Bar (sec) After Drug Treatment (15 min) ([9]; IM loperamide (0.5 mg), hydrochloride): 1 sec (2×) and 3 sec and 2 sec and 2 ± 1 sec
catalepsy [9]: no sign of catalepsy

CN1CC[C@]23c4c5ccc(O)c4O[C@H]2[C@@H](O)C=C[C@H]3[C@H]1C5.O=S(=O)(O)O [morphine, morphine sulfate]
A50, antinociception in the second phase of flinching [1]: 72 µg
Time to Dismount from Bar (sec) Before Drug ([9]; IM morphine (3 mg) group, sulfate): 1 sec (3×) and 1 ± 1 sec and 2 sec
Time to Dismount from Bar (sec) After Drug Treatment (15 min) ([9]; IM morphine (3 mg), sulfate): 37 s and 31 s and 37 ± 11 s and 29 s and 52 s
catalepsy [9]: significantly more cataleptic

O=C(N1CCCCC1)C(CCN1CCC(O)(c2ccccc2)CC1)(c1ccccc1)c1ccccc1 [Compound 17C]
Formalin-Induced Flinching (Late Phase) % Maximal Efficacy [1]: 87%
Formalin-Induced Flinching (Late Phase) ED50 [1]: 19 μg i. paw
Ki [3]: 2.5 nM
Ki [4]: 4680 nM
Ki [2]: 15 nM

CNC(=O)C(CCN1CCC(O)(c2ccc(Cl)cc2)CC1)(c1ccccc1)c1ccccc1.Cl [Example 18, 4-(p-chlorophenyl)-4-hydroxy-N-methyl-α,α-diphenyl-1-piperidinebutyramide hydrochloride]
Formalin-Induced Flinching (Late Phase) % Maximal Efficacy [1]: 88%
Formalin-Induced Flinching (Late Phase) ED50 [1]: 3.2 μg i. paw
Ki [3]: 1.1 nM
Ki [4]: > 1000 nM
Ki [2]: 200 nM

O=C(N1CCCC1)C(CCN1CCC(O)(c2ccc(Cl)cc2)CC1)(c1ccccc1)c1ccccc1 [Compound 17B]
Formalin-Induced Flinching (Late Phase) % Maximal Efficacy [1]: 86%
Formalin-Induced Flinching (Late Phase) ED50 [1]: 4.9 μg i. paw
Ki [3]: 2.2 nM
Ki [4]: 2230 nM
Ki [2]: 68 nM

N#CC(CCN1CCC(C(=O)O)(c2ccccc2)CC1)(c1ccccc1)c1ccccc1 [Difenoxin]
Formalin-Induced Flinching (Late Phase) % Maximal Efficacy [1]: 90%
Formalin-Induced Flinching (Late Phase) ED50 [1]: 33 μg i. paw
Ki [3]: 13 nM
Ki [2]: 56 nM
